Patent US20020059032A1, “Rational selection of putative peptides from identified nucleotide or peptide sequences” (priority 1999, published 2002)
Where a SMILES comes first, the peptide text is derived from it.

Each compound was assayed against guinea pig brain membranes (assay: Binding test with guinea pig brain membranes). Details: tested on guinea pig brain membranes; read-out: IC50 = 100 μM.
Procedure: Binding Assay Alternative Protocol by Skatron
The experimental conditions are identical for all the binding assay protocols except for the fact that: i) the volume R in operation is 200 μl; ii) the test carried out in 96-well Falcon plates iii) the reaction is directly stopped by filtration on filterMat (ref. 11734) Skatron and the radioactivity associated with the filtrate is evaluated: either directly with a γ counter for the peptides labelled with […]: or with a […] in the presence of 5 ml of scintillating liquid.
Membrane Preparations of Guinea Pig Brains and Binding Assay
The guinea pigs are sacrificed by rupturing their cervical vertibrae, decapitated, and the brains are removed very rapidly and placed into a sucrose-Tris-HCl buffer (0.32 M sucrose 5 mM, Tris-HCl, 0.1 g/l bacitracin) at 4° C. (about 10 ml of buffer per brain). The brains are then homogenized using a Potter device and the homogenate is placed in incubation for 30 minutes at 37° C. under agitation, then centrifuged twice for 35 minutes at 100,000×g at 4° C. The protein content of the membrane preparations is evaluated according to the Bradford method (BioRad, according to the manufacturers protocol).
Bonding of Labelled Agonists to the Guinea Pig Brain Membrane Preparation The membranes are placed in a buffer (50 mM of Tris-HCl, 5 mM of MgCl2 and 0.1 g/l of bacitracin) at the desired protein concentration (iodized CCK bond, 0.1 mg of protein/ml; iodized gastrin bond: 0.5 mg of proteins/ml). They are then incubated in the presence of a labelled ligand in a total volume of 500 μl (about 10 pM for the iodized CCK8, 20 pM for the iodized gastrin13), 50-80 minutes at 25° C., and in the presence or absence of cold agonists. The reaction is stopped with 3 ml of additional BSA buffer (20 g/l) at 4° C., the tubes are centrifuged at 10,000×g, the supernatant is drawn off and the radioactivity associated with the precipitate is evaluated with a γ counter.
Work on `CSCC[C@H](NC(=O)[C@@H](N)Cc1ccc(O)cc1)C(=O)N[C@@H](Cc1c[nH]cn1)C(=O)NCC(=O)N[C@@H](Cc1c[nH]cn1)C(=O)N[C@@H](CCCNC(=N)N)C(=O)N[C@@H](C)C(=O)N1CCC[C@H]1C(=O)NCC(N)=O` [Example 66, H-YMHGHRAPG-NH2] (H-YMHGHRAPG-NH2) yielded an IC50 of 2 nM. `CC(C)C[C@H](NC(=O)[C@H](C)NC(=O)[C@H](CCCCN)NC(=O)CNC(=O)[C@@H]1CCCN1C(=O)[C@@H](NC(=O)[C@H](C)NC(=O)CN)[C@@H](C)O)C(=O)N[C@H](C(=O)N[C@@H](C)C(=O)N[C@H](C(=O)N1CCC[C@H]1C(N)=O)[C@@H](C)O)C(C)C` [Example 39, H-GATPGKALVATP-NH2] (H-GATPGKALVATP-NH2) was tested, and the IC50 was 400 nM. `CSCC[C@H](NC(=O)[C@H](CCC(N)=O)NC(=O)[C@H](CC(C)C)NC(=O)[C@H](CCCCN)NC(=O)[C@@H]1CCCN1C(=O)[C@H](CC(=O)O)NC(=O)[C@H](CCC(N)=O)NC(=O)[C@@H](NC(=O)[C@@H](N)C(C)C)[C@@H](C)O)C(N)=O` [Example 8, H-VTQDPKLQM-NH2] (H-VTQDPKLQM-NH2) was tested, and the IC50 was 4200 nM. `CC[C@H](C)[C@H](NC(=O)[C@@H]1CCCN1C(=O)[C@H](CCC(=O)O)NC(=O)[C@H](CC(=O)O)NC(=O)[C@@H](NC(=O)CNC(=O)[C@H](CCC(=O)O)NC(=O)[C@H](Cc1ccccc1)NC(=O)[C@H](CC(=O)O)NC(=O)[C@@H](NC(=O)[C@@H](N)CC(=O)O)C(C)C)[C@@H](C)O)C(=O)N[C@@H](Cc1ccccc1)C(N)=O` [Example 38, H-DVDFEGTDEPIF-NH2] (H-DVDFEGTDEPIF-NH2) showed an IC50 of 500 nM. For `CC[C@H](C)[C@H](NC(=O)[C@H](C)NC(=O)[C@H](C)NC(=O)[C@@H](NC(=O)[C@H](CO)NC(=O)[C@H](C)NC(=O)[C@H](Cc1ccccc1)NC(=O)[C@H](Cc1ccc(O)cc1)NC(=O)[C@H](CCC(N)=O)NC(=O)[C@@H](NC(=O)[C@@H](N)C(C)C)[C@@H](C)CC)[C@@H](C)CC)C(=O)NCC(=O)N[C@@H](CC(=O)O)C(=O)N[C@@H](CCCNC(=N)N)C(N)=O` [Example 52, H-VIQYFASIAAIGDR-NH2] (H-VIQYFASIAAIGDR-NH2), the IC50 was 7000 nM. For `CSCC[C@H](NC(=O)[C@H](CCC(N)=O)NC(=O)[C@H](CCC(=O)O)NC(=O)[C@H](CCSC)NC(=O)[C@H](CC(C)C)NC(=O)[C@@H]1CCCN1C(=O)CNC(=O)[C@@H]1CCCN1C(=O)[C@@H]1CCCN1C(=O)CNC(=O)CNC(=O)[C@@H]1CCCN1C(=O)CNC(=O)CN)C(=O)NCC(N)=O` [Example 36, H-GGPGGPPGPLMEQMG-NH2] (H-GGPGGPPGPLMEQMG-NH2), the IC50 was 2900 nM. With `CC(C)[C@H](NC(=O)[C@H](C)NC(=O)[C@H](CCCCN)NC(=O)[C@H](C)NC(=O)[C@@H]1CCCN1C(=O)[C@@H](NC(=O)[C@@H](NC(=O)[C@@H](N)[C@@H](C)O)C(C)C)[C@@H](C)O)C(=O)N[C@H](C(=O)N[C@H](C(=O)N1CCC[C@H]1C(N)=O)[C@@H](C)O)[C@@H](C)O` [Example 59, H-TVTPAKAVTTP-NH2] (H-TVTPAKAVTTP-NH2) the IC50 was 410 nM. In the case of `CC(C)[C@H](NC(=O)[C@H](C)NC(=O)[C@@H](NC(=O)[C@@H](NC(=O)[C@H](C)NC(=O)[C@@H](NC(=O)[C@@H](N)CCC(N)=O)[C@@H](C)O)C(C)C)[C@@H](C)O)C(=O)N[C@@H](CCC(=O)O)C(=O)N[C@@H](CCCCN)C(=O)N1CCC[C@H]1C(=O)N[C@@H](C)C(=O)N[C@@H](CC(=O)O)C(=O)N[C@@H](CCCCN)C(N)=O` [Example 57, H-QTAVTAVEKPADK-NH2] (H-QTAVTAVEKPADK-NH2), the IC50 is reported as 60 nM. Work on `CSCC[C@H](N)C(=O)N[C@@H](CC(=O)O)C(=O)N[C@H](C(=O)NCC(=O)NCC(=O)N[C@@H](CC(C)C)C(=O)N[C@@H](CO)C(=O)N[C@@H](CC(=O)O)C(=O)N1CCC[C@H]1C(=O)N[C@@H](Cc1ccc(O)cc1)C(=O)N[C@H](C(=O)N[C@@H](CCCCN)C(=O)N[C@H](C(=O)N[C@@H](Cc1c[nH]cn1)C(=O)N[C@@H](CC(C)C)C(=O)N[C@@H](CC(C)C)C(=O)N[C@@H](CCC(N)=O)C(=O)NCC(N)=O)C(C)C)C(C)C)C(C)C` [Example 10, H-MDVGGLSDPYVKVHLLQG-NH2] (H-MDVGGLSDPYVKVHLLQG-NH2) yielded an IC50 of 30 nM. `CC[C@H](C)[C@H](NC(=O)[C@H](CCCCN)NC(=O)[C@@H](NC(=O)[C@H](CC(C)C)NC(=O)[C@@H](NC(=O)CNC(=O)[C@@H](N)CO)[C@@H](C)O)[C@@H](C)CC)C(=O)N[C@@H](Cc1ccccc1)C(=O)N[C@@H](CCC(N)=O)C(=O)N[C@@H](C)C(=O)N[C@@H](CO)C(N)=O` [Example 47, H-SGTLIKIFQAS-NH2] (H-SGTLIKIFQAS-NH2) was tested, and the IC50 was 300 nM. In the case of `CSCC[C@H](NC(=O)[C@H](CO)NC(=O)[C@H](CCSC)NC(=O)[C@H](CO)NC(=O)[C@H](CC(=O)O)NC(=O)[C@H](CCCCN)NC(=O)[C@H](CC(N)=O)NC(=O)[C@H](CCC(N)=O)NC(=O)[C@H](CCCNC(=N)N)NC(=O)[C@@H](NC(=O)[C@H](CCCCN)NC(=O)[C@@H](N)CCSC)[C@@H](C)O)C(=O)N[C@@H](CCCNC(=N)N)C(=O)N[C@@H](CO)C(N)=O` [Example 43, H-MKTRQNKDSMSMRS-NH2] (H-MKTRQNKDSMSMRS-NH2), the IC50 is reported as 50 nM. `CC[C@H](C)[C@H](NC(=O)[C@H](CO)NC(=O)[C@@H](N)Cc1ccccc1)C(=O)N[C@@H](C)C(=O)N[C@H](C(=O)N[C@@H](CC(C)C)C(=O)N[C@@H](CCCNC(=N)N)C(=O)N[C@@H](CC(=O)O)C(=O)N[C@@H](Cc1ccccc1)C(=O)NCC(=O)N[C@H](C(N)=O)C(C)C)[C@@H](C)O` [Example 15, H-FSIATLRDFGV-NH2] (H-FSIATLRDFGV-NH2) gave an IC50 of 360 nM. `CC(C)[C@H](NC(=O)[C@H](C)NC(=O)[C@@H](NC(=O)[C@H](Cc1c[nH]c2ccccc12)NC(=O)[C@@H]1CCCN1)[C@@H](C)O)C(=O)N[C@@H](CC(=O)O)C(=O)N[C@H](C(=O)N[C@@H](CO)C(=O)N[C@H](C(=O)N[C@@H](CC(=O)O)C(N)=O)C(C)C)[C@@H](C)O` [Example 51, H-PWTAVDTSVD-NH2] (H-PWTAVDTSVD-NH2) showed an IC50 of 140 nM. `CSCC[C@H](NC(=O)CNC(=O)[C@H](Cc1ccccc1)NC(=O)[C@H](CC(N)=O)NC(=O)[C@H](CCCNC(=N)N)NC(=O)[C@H](CC(C)C)NC(=O)[C@@H](NC(=O)[C@H](CCSC)NC(=O)[C@H](CC(C)C)NC(=O)[C@H](CO)NC(=O)[C@@H](N)Cc1ccccc1)[C@@H](C)O)C(N)=O` [Example 28, H-FSLMTLRNFGM-NH2] (H-FSLMTLRNFGM-NH2) showed an IC50 of 400 nM. For `CSCC[C@H](NC(=O)[C@H](CCC(N)=O)NC(=O)[C@H](Cc1ccccc1)NC(=O)CNC(=O)[C@H](CO)NC(=O)[C@@H](N)CC(=O)O)C(=O)N[C@@H](CC(N)=O)C(=O)N[C@@H](CCC(N)=O)C(=O)N[C@@H](CC(C)C)C(=O)N[C@@H](CCCNC(=N)N)C(N)=O` [Example 13, H-DSGFQMNQLR-NH2] (H-DSGFQMNQLR-NH2), the IC50 was 90 nM. `CSCC[C@H](NC(=O)CNC(=O)[C@H](Cc1ccccc1)NC(=O)[C@H](CC(=O)O)NC(=O)[C@H](CCCNC(=N)N)NC(=O)[C@H](CCSC)NC(=O)[C@@H](NC(=O)[C@@H](NC(=O)[C@@H](NC(=O)[C@H](CO)NC(=O)[C@@H](N)Cc1ccccc1)C(C)C)[C@@H](C)O)[C@@H](C)O)C(N)=O` [Example 16, H-FSVTTMRDFGM-NH2] (H-FSVTTMRDFGM-NH2) showed an IC50 of 80 nM. Compound `CC(C)C[C@H](NC(=O)[C@H](C)NC(=O)[C@H](CCC(=O)O)NC(=O)[C@H](CCC(N)=O)NC(=O)[C@@H](N)CC(C)C)C(=O)N[C@@H](CO)C(=O)N[C@@H](CCCCN)C(=O)N[C@@H](C)C(=O)N[C@@H](C)C(N)=O` [Example 50, H-LQEALSKAA-NH2] (H-LQEALSKAA-NH2) has an IC50 of 1000 nM. `CC[C@H](C)[C@H](NC(=O)[C@@H]1CCCN1C(=O)[C@@H](NC(=O)[C@H](Cc1ccccc1)NC(=O)[C@H](CC(C)C)NC(=O)[C@@H](NC(=O)[C@H](CO)NC(=O)CNC(=O)[C@H](CC(C)C)NC(=O)[C@H](CC(C)C)NC(=O)[C@@H]1CCCN1)[C@@H](C)O)[C@@H](C)CC)C(N)=O` [Example 12, H-PLLGSTLFIPI-NH2] (H-PLLGSTLFIPI-NH2) showed an IC50 of 20 nM. Work on `CC(C)C[C@H](NC(=O)[C@H](CCC(N)=O)NC(=O)[C@H](C)NC(=O)[C@@H](NC(=O)[C@H](CCC(=O)O)NC(=O)[C@H](CCC(=O)O)NC(=O)[C@H](CCCCN)NC(=O)[C@@H]1CCCN1C(=O)[C@@H]1CCCN1C(=O)[C@@H](N)CCC(=O)O)[C@@H](C)O)C(=O)N[C@H](C(=O)NCC(=O)N1CCC[C@H]1C(=O)N[C@@H](CCC(=O)O)C(=O)N[C@@H](C)C(N)=O)[C@@H](C)O` [Example 65, H-EPPKEETAQLTGPEA-NH2] (H-EPPKEETAQLTGPEA-NH2) yielded an IC50 of 4000 nM. `C[C@@H](O)[C@H](NC(=O)[C@@H](N)CCC(=O)O)C(=O)N[C@@H](CCCCN)C(=O)N[C@@H](Cc1c[nH]cn1)C(=O)NCC(=O)NCC(=O)N[C@@H](Cc1c[nH]cn1)C(=O)N[C@@H](CCCCN)C(=O)N[C@@H](CC(N)=O)C(N)=O` [Example 49, H-ETKHGGHKN-NH2] (H-ETKHGGHKN-NH2) was tested, and the IC50 was 330 nM.
